Assay results as given in PubChem BioAssay (NCI).
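Cultured in 96-well plates, cells were exposed to test compound for 48 hours across five concentrations. The concentration for full growth arrest is given as TGI.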

Experiments:
Experiment in all cases: NCI tumour cell line growth inhibition, 48 h
[1] = test system: SK-MEL-2 melanoma
[2] = test system: OVCAR-3 ovarian
[3] = test system: HOP-92 NSCLC
[4] = test system: RXF-631 renal
[5] = test system: 786-0 renal
[6] = test system: EKVX NSCLC
[7] = test system: CAKI-1 renal
[8] = test system: DMS 114 small cell lung
[9] = test system: NCI-H522 lung
[10] = test system: LXFL 529 NSCLC
[11] = test system: UO-31 renal
[12] = test system: IGROV1 ovarian
[13] = test system: LOX IMVI melanoma
[14] = test system: SNB-78 CNS
[15] = test system: MALME-3M melanoma
[16] = test system: OVCAR-8 ovarian
[17] = test system: UACC-62 melanoma
[18] = test system: SF-268 CNS
[19] = test system: HOP-62 NSCLC
[20] = test system: M14 melanoma
[21] = test system: HCT-15 colon
[22] = test system: SK-MEL-5 melanoma
[23] = test system: SF-295 CNS
[24] = test system: K-562 leukemia
[25] = test system: HL-60(TB) leukemia
[26] = test system: CCRF-CEM leukemia
[27] = test system: ACHN renal
[28] = test system: COLO 205 colon
[29] = test system: M19-MEL melanoma
[30] = test system: SK-MEL-28 melanoma
[31] = test system: DMS 273 small cell lung
[32] = test system: A549 NSCLC
[33] = test system: HOP-18 NSCLC
[34] = test system: SR leukemia
[35] = test system: DLD-1 colon
[36] = test system: KM12 colon
[37] = test system: NCI-H460 lung
[38] = test system: SW-620 colon
[39] = test system: RPMI-8226 leukemia
[40] = test system: HT29 colon
[41] = test system: KM20L2 colon
[42] = test system: SK-OV-3 ovarian
[43] = test system: HCT-116 colon
[44] = test system: XF 498 CNS
[45] = test system: SNB-75 CNS
[46] = test system: TK-10 renal
[47] = test system: RXF 393 renal
[48] = test system: OVCAR-5 ovarian
[49] = test system: UACC-257 melanoma
[50] = test system: SF-539 CNS
[51] = test system: A498 renal
[52] = test system: NCI-H226 lung
[53] = test system: OVCAR-4 ovarian
[54] = test system: SN12C renal
[55] = test system: U251 CNS
[56] = test system: SNB-19 CNS
[57] = test system: MDA-N
[58] = test system: MDA-MB-435
[59] = test system: PC-3 prostate
[60] = test system: DU-145 prostate
[61] = test system: MCF7 breast
[62] = test system: MDA-MB-231 breast
[63] = test system: HS 578T breast
[64] = test system: NCI/ADR-RES ovarian
[65] = test system: HCC-2998 colon
[66] = test system: NCI-H23 lung
[67] = test system: MOLT-4 leukemia
[68] = test system: BT-549 breast

COc1ccc(C(=O)Nc2ccn(CCOC(=O)c3ccc(OC)cc3)c(=O)n2)cc1
TGI [1]: > 100 µM | TGI [2]: > 100 µM | TGI [3]: > 100 µM | TGI [4]: > 100 µM | TGI [5]: > 100 µM | TGI [6]: > 100 µM | TGI [7]: > 100 µM | TGI [8]: > 100 µM | TGI [9]: > 100 µM | TGI [10]: > 100 µM | TGI [11]: > 100 µM | TGI [12]: > 100 µM | TGI [13]: > 100 µM | TGI [14]: > 100 µM | TGI [15]: > 100 µM | TGI [16]: > 100 µM | TGI [17]: > 100 µM | TGI [18]: > 100 µM | TGI [19]: > 100 µM | TGI [20]: > 100 µM | TGI [21]: > 100 µM | TGI [22]: > 100 µM | TGI [23]: > 100 µM | TGI [24]: > 100 µM | TGI [25]: > 100 µM | TGI [26]: > 100 µM | TGI [27]: > 100 µM | TGI [28]: > 100 µM | TGI [29]: > 100 µM | TGI [30]: > 100 µM | TGI [31]: > 100 µM | TGI [32]: > 100 µM | TGI [33]: > 100 µM | TGI [34]: > 100 µM | TGI [35]: > 100 µM | TGI [36]: > 100 µM | TGI [37]: > 100 µM | TGI [38]: > 100 µM | TGI [39]: > 100 µM | TGI [40]: > 100 µM | TGI [41]: > 100 µM | TGI [42]: > 100 µM | TGI [43]: > 100 µM | TGI [44]: > 100 µM | TGI [45]: > 100 µM | TGI [46]: > 100 µM | TGI [47]: 54.3 µM | TGI [48]: > 100 µM | TGI [49]: > 100 µM | TGI [50]: > 100 µM | TGI [51]: > 100 µM | TGI [52]: > 100 µM | TGI [53]: > 100 µM | TGI [54]: > 100 µM | TGI [55]: > 100 µM

COc1ccccc1/C=C1\CCC(CN2CCOCC2)C1=O (configuration not stated)
TGI [1]: 32.2 µM | TGI [2]: 15.2 µM | TGI [3]: 40.2 µM | TGI [4]: 24.4 µM | TGI [56]: 22.6 µM | TGI [57]: 26.9 µM | TGI [58]: 20.4 µM | TGI [5]: 8.53 µM | TGI [6]: 30.6 µM | TGI [7]: 32.1 µM | TGI [8]: 35.6 µM | TGI [9]: 3.8 µM | TGI [10]: 9.34 µM | TGI [11]: 31.4 µM | TGI [59]: 30 µM | TGI [60]: 31.4 µM | TGI [12]: 29.3 µM | TGI [13]: 15.7 µM | TGI [14]: 48.2 µM | TGI [15]: 23.7 µM | TGI [16]: 16.9 µM | TGI [17]: 30.3 µM | TGI [61]: 21.8 µM | TGI [18]: 41.7 µM | TGI [19]: 50.2 µM | TGI [62]: 11.5 µM | TGI [20]: 18.8 µM | TGI [21]: 12.3 µM | TGI [22]: 28.7 µM | TGI [23]: 34.6 µM | TGI [24]: 10.3 µM | TGI [25]: 6.42 µM | TGI [26]: > 21.3 µM | TGI [27]: 30 µM | TGI [28]: 14.2 µM | TGI [29]: 18 µM | TGI [30]: 29.6 µM | TGI [31]: 28.4 µM | TGI [32]: 45 µM | TGI [33]: 31.8 µM | TGI [34]: 5.7 µM | TGI [35]: 18.1 µM | TGI [63]: > 100 µM | TGI [64]: 35.8 µM | TGI [36]: 14.5 µM | TGI [37]: 36 µM | TGI [38]: 11.5 µM | TGI [65]: 28.3 µM | TGI [40]: 56.6 µM | TGI [41]: 32.6 µM | TGI [42]: > 57.5 µM | TGI [43]: 22.9 µM | TGI [44]: 30.1 µM | TGI [45]: 46.3 µM | TGI [46]: 12.5 µM | TGI [47]: 30.6 µM | TGI [48]: 33.7 µM | TGI [66]: 43.5 µM | TGI [49]: 23.9 µM | TGI [50]: 28.6 µM | TGI [51]: 32.4 µM | TGI [67]: 14.2 µM | TGI [52]: 31.8 µM | TGI [53]: 35.6 µM | TGI [68]: 29.8 µM | TGI [54]: 16.2 µM | TGI [55]: 34.2 µM
